Data published in patent US20080182781A1, “Process for the Preparation of Peptides” (priority 2004, published 2008).
Like-named read-outs stand apart in the source and are kept apart here. Where a SMILES comes first, the peptide text is derived from it. Bridges are numbered along the chain shown (N, C = ends). [ ]: non-standard residue; d: D form. hArg = N=C(N)NCCCC[C@H](N)C(=O)O; Mpa = O=C(O)CCS

System: ADP induced platelet aggregation
Assay type: cell-based
Settings: human PRP
Procedure: The bioactivity of peptide of formula (1) is checked using platelet aggregation inhibition assay using 4× Laser Aggregometer (EMA). Freshly venous Blood from consented human donors are drawn and collected in citrated buffer. The platelet rich plasma (PRP) and platelet poor plasma are separated by centrifugation. Platelet count in PRP is adjusted to 2-3×10^8 platelets/ml. After adjusting the baseline aggregation with PPP, the PRP was treated with […] ADP and checked the percent total aggregation. The PRP is then first incubated with varying concentrations of reference standard and synthesized peptide of formula (1). ADP is then added to check the inhibition of aggregation. The reproducibility of bioactivity of synthesized peptide of formula 1 is checked several times and compared with reference standards.

## N=C(N)NCCCC[C@@H]1NC(=O)CCSSC[C@@H](C(N)=O)NC(=O)[C@@H]2CCCN2C(=O)[C@H](Cc2c[nH]c3ccccc23)NC(=O)[C@H](CC(=O)O)NC(=O)CNC1=O [SP of formula 1] ([Mpa][hArg]GDWPC-NH2; disulfide 1-7)
Donor 1, 140 nM
  % Inhibition of ADP induced aggregation: 44.6%
Donor 1, 280 nM
  % Inhibition of ADP induced aggregation: 61.40%
Donor 2, 70 nM
  % Inhibition of ADP induced aggregation: 46.66%
Donor 2, 140 nM
  % Inhibition of ADP induced aggregation: 51.16%
Donor 2, 280 nM
  % Inhibition of ADP induced aggregation: 67.74%
Donor 3, 70 nM
  % Inhibition of ADP induced aggregation: 57.42%
Donor 3, 140 nM
  % Inhibition of ADP induced aggregation: 60.28%
Donor 4, 140 nM
  % Inhibition of ADP induced aggregation: 20.52%
Donor 4, 280 nM
  % Inhibition of ADP induced aggregation: 42.73%
Donor 5, 70 nM
  % Inhibition of ADP induced aggregation: 52.63%
Donor 5, 140 nM
  % Inhibition of ADP induced aggregation: 87.21%
Donor 6, 140 nM
  % Inhibition of ADP induced aggregation: 82.92%
12 experiments, read-out: IC50 dose, inhibition of ADP induced platelet aggregation
  IC50: < 140 nM
Seen in most of the samples
  inhibition of ADP induced platelet aggregation: more than 50%
